Data as given in patent publication US8497270B2, “Macrocyclic integrase inhibitors” (Elanco Animal Health Ireland Limited, priority 2009, dated 2013).
Like-named read-outs stand apart in the source and are kept apart here.

Key:
HIV-1 IIIB = experiment: Assay 1: inhibitory activity on HIV replication, wild type (MT4-LTR-EGFP cells); assay type: cell-based; conditions: Human immunodeficiency virus 1, 72 h, 3 days, EGFP fluorescence
Source text: (§1) Assay 1—Inhibitory Activity on HIV Replication Wild Type, N155H Mutant, and Q148R Mutant
(§2) MT4-LTR-enhanced green fluorescent protein (EGFP) cells were obtained by transfecting MT4 cells with a selectable construct encompassing the coding sequences for the HIV LTR as a promoter for the expression of EGFP and subsequent selection of permanently transfected cells. MT4-cytomegalovirus (CMV)-EGFP cells were obtained by selection for permanently transformed MT4 cells with a CMV-EGFP reporter gene. Cell lines were maintained in RPMI 1640 medium supplemented with 10% heat-inactivated fetal calf serum, 2 mM L-glutamine, 0.1% NaHCO3, and antibiotics (0.02% gentamicin and 0.8% G418) and incubated in a humidified incubator with a 5% CO2 atmosphere at 37° C.
(§3) The antiviral activity of different inhibitors was determined in a cell-based HIV-1 replication assay. MT4-LTR-EGFP cells (150,000 cells/ml) were infected with HIV-1 (IIIB or site-directed mutant strains N155H or Q148R; multiplicity of infection [MOI] of 0.0025) in the presence or absence of inhibitor. After 3 days of incubation, the inhibition of HIV replication was quantified by measuring EGFP fluorescence, and expressed as the inhibitor concentration required for 50% inhibition of HIV-1 replication in cell culture (IIIB EC50—see Table 1).

[1] = test system: HIV-1 site-directed mutant strain N155H; experiment: Assay 1: inhibitory activity on HIV replication, N155H mutant (MT4-LTR-EGFP cells); assay type: cell-based; conditions: Human immunodeficiency virus 1, 72 h, read-out: N155H EC50
Source text: as §1, §2
(§4) N155H and Q148R mutant Integrase coding sequences were constructed in the pUC19-5′HXB2D vector (XbaI-SalI fragment of pHXB2D), containing the HIV-1 clone HXB2D IN coding sequence, by using a QuikChange site-directed mutagenesis kit (Stratagene, La Jolla, Calif.) and high-performance liquid chromatography-purified primers (Genset Oligos, La Jolla, Calif.). Altered plasmid sequences were confirmed by dideoxyribose sequencing.
(§5) For generation of site directed mutant (SDM) virus stocks, MT4 cells were subcultured at a density of 250,000 cells/ml on the day before transfection. Cells were pelleted and resuspended in phosphate-buffered saline at a concentration of 3.1×10^6 cells/ml. A 0.8-ml portion ([…]) was used for each transfection. Transfections were performed with a Bio-Rad Gene Pulser (Bio-Rad, Hercules, Calif.) with 0.4-cm electrode cuvettes (Bio-Rad). Cells were electroporated with 10 μg of SalI-linearized pUC19-3′HXB2D (SalI-XbaI fragment of pHXB2D) and 5 μg of SalI-digested SDM at 250 μF and 300 V, followed by a 30-min incubation at room temperature. Ten milliliters of fresh culture medium was then added to the suspension of transfected cells, and incubation was performed at 37° C. in a humidified atmosphere with 5% CO2. Cell cultures were monitored for the appearance of cytopathic effect (CPE). At virus breakthrough (full CPE), culture supernatant was typically harvested by centrifugation at 8 to 10 days after transfection and was stored at −80° C. for subsequent drug susceptibility determination.
as §3

[2] = test system: HIV-1 site-directed mutant strain Q148R; experiment: Assay 1: inhibitory activity on HIV replication, Q148R mutant (MT4-LTR-EGFP cells); assay type: cell-based; conditions: Human immunodeficiency virus 1, 72 h, read-out: Q148R EC50
Source text: as §1, §2, §4, §5, §3

[3] = Assay 2: cellular cytotoxic activity; assay type: cell-based; conditions: human, mock-infected MT4-CMV-EGFP cells, EGFP fluorescence
Source text: MT4-LTR-enhanced green fluorescent protein (EGFP) cells were obtained by transfecting MT4 cells with a selectable construct encompassing the coding sequences for the HIV LTR as a promoter for the expression of EGFP and subsequent selection of permanently transfected cells. MT4-cytomegalovirus (CMV)-EGFP cells were obtained by selection for permanently transformed MT4 cells with a CMV-EGFP reporter gene. Cell lines were maintained in RPMI 1640 medium supplemented with 10% heat-inactivated fetal calf serum, 2 mM L-glutamine, 0.1% NaHCO3, and antibiotics (0.02% gentamicin and 0.8% G418) and incubated in a humidified incubator with a 5% CO2 atmosphere at 37° C. Assay 2—Cellular Cytotoxic Activity The cytotoxicity of inhibitors was determined in parallel to the experiments under assay 1 on mock-infected MT4-CMV-EGFP cells (150,000 cells/ml) cultured in the presence or absence of different concentrations of compounds of formula I. After 3 days of incubation, inhibition of cell proliferation was quantified by measuring the EGFP fluorescence and expressed as the compound concentration that inhibits cell growth by 50% (CC50—see Table 1).

HIV-1 LAI (IIIB) = experiment: Assay 3: inhibitory activity on HIV replication wild type in the presence of human serum; assay type: cell-based; conditions: Human immunodeficiency virus 1, IIIB, 96 h; in the presence of 50% human serum, 4 days, resazurin cell viability
Protocol: Assay 3—Inhibitory Activity on HIV Replication Wild Type in the Presence of Human Serum
For the Antiviral assay in the presence of 50% human serum MT-4-LTR-EGFP cells were infected with HIV-1 LAI (IIIB) at a MOI of 0.001 to 0.01 CCID50/cell in RPMI1640 medium. Following 1 h of incubation, cells were washed and plated into a 96-well plate containing serial dilutions of compound in the presence of 10% fetal calf serum (FCS), or 50% human serum. After 4 days incubation, the EC50 in the presence of 50% human serum (EC50/HS—see Table 1) was determined by a cell viability assay using resazurin (as described by Fields, R. D., and M. V. Lancaster (1993) Am. Biotechnol. Lab. 11:48-50).

[4] = target: recombinant HIV-1 integrase (Human immunodeficiency virus type 1 group M subtype B (isolate HXB2) (HIV-1), UniProt P04585); experiment: Assay 4: 3dQ assay, inhibition of HIV integrase mediated 3'-processing; assay type: biochemical
Protocol: The inhibition of HIV integrase mediated 3′-processing was determined in a biochemical assay. For this a short (˜20 bp) double stranded U5 LTR substrate was generated by hybridization of 5 μM 5′-[…]-3′-alx488 (SEQ ID 1) with 7 μM dabcyl-5′-[…]-3′ (SEQ ID 2) in 10 mM Tris pH 8.0, 100 mM NaCl (heating to 95° C. and gradually cooling over 30′ to RT). Integrase inhibition was determined by incubation of 150 nM recombinant HIV-1 integrase, 100 nM recombinant LEDGF and 50 nM U5 LTR substrate in reaction buffer (25 mM MOPS pH7.2, 10 mM DTT, 10 mM MgCl2, 15 mM potassium glutamate and 2.5% DMSO) in the presence or absence of different concentrations test compounds. After 2 h at 37° C. reactions were stopped by adding ⅕ volumes of 0.5% SDS and fluorescence was measured (excitation at 488 nm, emission at 538 nm) and expressed as the inhibitor concentration required for 50% inhibition of the HIV integrase (IC50—see Table 1).

[5] = 3'-processing, 150 nM integrase, 100 nM LEDGF, 50 nM U5 LTR substrate, 2 h at 37° C., read-out: IC50

Structure (SMILES)	EC50 (HIV-1 IIIB) [nM]	EC50 [1] [nM]	EC50 [2] [nM]	CC50 at 3 days [3] [nM]	EC50 (HIV-1 LAI (IIIB)) [nM]	IC50 [4, 5] [nM]	IC50 [4] [nM]
O=C1NCCCCCCNc2nc(c(O)c3ncccc23)C(=O)NCc2ccc(F)cc21 [Compound 1]	17	420	350	20700	35	950	–
O=C1NCCCNc2nc(c(O)c3ncccc23)C(=O)NCc2ccc(F)cc21 [Compound 2]	8900	–	36700	61000	–	–	68000
O=C1NCCCCNc2nc(c(O)c3ncccc23)C(=O)NCc2ccc(F)cc21 [Compound 3]	1060	–	28000	> 98000	–	–	–
O=C1NCCCCCNc2nc(c(O)c3ncccc23)C(=O)NCc2ccc(F)cc21 [Compound 4]	71	1900	7200	> 31000	130	–	–
O=C1NCCCCCCCNc2nc(c(O)c3ncccc23)C(=O)NCc2ccc(F)cc21 [Compound 5]	17	390	440	7700	51	1000	–
CN1c2nc(c(O)c3ncccc23)C(=O)NCc2ccc(F)cc2C(=O)NCCCCCS1(=O)=O [Compound 6]	4	83	8	27700	3	250	–
CN1c2nc(c(O)c3ncccc23)C(=O)NCc2ccc(F)cc2C(=O)NCCCCS1(=O)=O [Compound 7]	4	260	20	13300	3	360	–
O=C1NCCCCN2CCN(CC2)c2nc(c(O)c3ncccc23)C(=O)NCc2ccc(F)cc21 [Compound 8]	18	1900	850	3100	18	1200	–
O=C1NCCCN2CCN(CC2)c2nc(c(O)c3ncccc23)C(=O)NCc2ccc(F)cc21 [Compound 9]	17	1510	460	43000	25	1600	–
O=C1NCc2ccc(F)cc2OCCCCC(=O)N2CCN(CC2)c2nc1c(O)c1ncccc21 [Compound 10]	3	110	39	> 24000	27	–	–
CN1c2nc(c(O)c3ncccc23)C(=O)NCc2ccc(F)cc2OCCCCS1(=O)=O [Compound 11]	5	310	24	> 24000	16	–	–
CN1c2nc(c(O)c3ncccc23)C(=O)NCc2ccc(F)cc2OCCCCCS1(=O)=O [Compound 12]	1	170	12	> 98000	40	200	–
